These results are taken from patent US4622293A, “Iodothyronine immunoassays employing HMS as TBP blocking agent” (Miles Laboratories, Inc., priority 1983, dated 1986).

Data set [1] has as its target apo(glucose oxidase) (Aspergillus niger, UniProt P13006). Nature of the data set: Effect of HMS on the activation of apo(glucose oxidase) by an FAD-labeled thyroxine conjugate. The note with it: 37° C, pH 6.5, five minute incubation, read-out: % Activity (absorbance at 520 nm as percentage of that with no HMS). Format: biochemical. The protocol:
The activation of apoglucose oxidase was set up with different concentrations of HMS and performed at 37° C. Assays containing 50 mM sodium phosphate, pH 6.5, 200 mM glucose, 2.0 mM sodium dichlorohydroxybenzene sulfonate (DHSA), 25 μg/mL peroxidase, various concentrations of HMS and 2.5 nM final concentration of a FAD-thyroxine conjugate (see U.S. Pat. No. 4,213,893) were started by adding apo(glucose oxidase), 4-aminoantipyrine, and anti(glucose oxidase) at final concentrations of 125 nM, 400 μM, and 8 μL/mL respectively. The absorbance at 520 nm was recorded after a five minute incubation. The data are presented in Table 3 as a percentage of the absorbance recorded when no HMS is present.

Data set [2] deals with human serum proteins (thyroxine binding proteins, TBP). The data set is described as follows: Dissociation of 125I-thyroxine from human serum proteins by HMS (Sephadex column). The note with it: for Percent Dissociated in 5 Minutes / Percent Dissociated in 30 Minutes: pH 6.0, room temperature. As for the experimental part:
Radioactive iodine-labeled thyroxine (^125 I-thyroxine obtained from New England Nuclear, Boston, MA USA) was equilibrated with 3.5 milliliter (mL) of normal human serum for 48 hours at 4° C. Aliquots of this serum [50 microliters (μL)] were added to 450 μL of 0.1 molar (M) sodium phosphate, pH 6.0, containing various concentrations of HMS to give the final concentrations given in Table 1. After 5 or 30 minutes of incubation at room temperature, a 500 μL aliquot was applied to a Sephadex column from a Seralute® thyroxine assay kit (Miles Laboratories, Inc., Ames Division, Elkhart, IN, USA), which has been equilibrated with 0.1 M sodium phosphate, pH 6.0. The total radioactivity applied to the columns was measured and the undissociated material was washed through the column. The columns were counted to determine the percentage of thyroxine dissociated from the serum proteins.

The nature of data set [3]: Water solubility (statement). In kind it is physicochemical.
Data set [4] deals with serum proteins. Nature of the data set: Effect of pH on the dissociation of iodothyronine from serum proteins by HMS. In kind it is binding. The following applies: for % Dissociated: 1.0 mM HMS in MIX solution. The protocol: Assays were performed in 3 ml polystyrene test tubes in duplicate. A solution (designated "MIX") was prepared containing 27 mL of 0.1 M sodium phosphate, at the stated pH, 73 mL of 21% polyethyleneglycol, 1.0 mM HMS, and 10 micrograms (μg) (40 μL) I-125-thyroxine for each 100 mL. Assay solutions are made up by addition of 50 μL of a serum sample, 0.1 mL of anti(thyroxine) antiserum diluted in 0.1 M sodium phosphate (at the given pH) and 1.0 mL of the MIX solution. Assays are included for maximum binding of label and nonspecific binding.

Chain of apo(glucose oxidase) (P13006 17-605): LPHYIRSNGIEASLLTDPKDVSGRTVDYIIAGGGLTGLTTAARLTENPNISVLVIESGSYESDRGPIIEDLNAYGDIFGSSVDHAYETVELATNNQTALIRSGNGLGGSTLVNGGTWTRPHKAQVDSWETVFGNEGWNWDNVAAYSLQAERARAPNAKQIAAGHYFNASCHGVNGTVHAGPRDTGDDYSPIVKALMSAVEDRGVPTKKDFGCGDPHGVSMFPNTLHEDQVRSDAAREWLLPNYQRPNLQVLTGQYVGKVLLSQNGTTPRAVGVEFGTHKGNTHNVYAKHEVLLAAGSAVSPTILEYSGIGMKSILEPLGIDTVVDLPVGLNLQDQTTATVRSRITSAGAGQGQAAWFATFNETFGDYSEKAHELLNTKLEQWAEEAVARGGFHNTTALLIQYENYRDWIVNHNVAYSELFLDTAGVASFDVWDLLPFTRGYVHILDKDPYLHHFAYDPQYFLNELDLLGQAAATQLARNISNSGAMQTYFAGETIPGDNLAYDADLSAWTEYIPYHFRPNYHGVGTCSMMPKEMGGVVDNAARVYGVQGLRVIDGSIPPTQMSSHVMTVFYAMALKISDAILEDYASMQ

For the compound `COc1cc(O)c(C(=O)c2ccccc2)cc1S(=O)(=O)O` [HMS, 2-hydroxy-4-methoxybenzophenone-5-sulfonic acid], the activity at 50 µM in data set [1] (HMS 0.05 mM) was 100%. In data set [1] (HMS 0.10 mM), the activity at 100 µM amounted to 100%. Further, in data set [1] (HMS 0.50 mM), the activity at 500 µM was 99%. The activity at 1000 µM in data set [1] (HMS 1.00 mM) worked out at 97%. The activity at 5000 µM in data set [1] (HMS 5.00 mM) was found to be 86%. The activity at 10000 µM in data set [1] (HMS 10.00 mM) turned out to be 72%. Also, the “Percent Dissociated in 5 Minutes” value in data set [2] (HMS 1 mM) worked out at 65%; in data set [2] (HMS 2 mM), 74%; in data set [2] (HMS 4 mM) it was 91%; in data set [2] (HMS 6 mM), 93%. For the same compound, the “Percent Dissociated in 30 Minutes” value in data set [2] (HMS 1 mM) was 73%; in data set [2] (HMS 2 mM) it was 84%; in data set [2] (HMS 4 mM) it was 94%; in data set [2] (HMS 6 mM), 95%. The “Dissociation of TBP-bound iodothyronine” value in data set [2] (concentration 4 mM) is “over 90%”; in data set [2] (reaction mixture concentration 1 mM, in a few minutes) it was “over 50%”. Also, the Water solubility entry in data set [3] is listed as “highly water soluble”. In addition, the “% Dissociated” value in data set [4] (pH 6.0) is listed as 73%; in data set [4] (pH 6.5) it was 73%; in data set [4] (pH 7.0), 69%; in data set [4] (pH 7.5), 72%. The “Effect of pH on the efficiency of dissociation” value in data set [4] (pH range 6.0-7.5) is “essentially no effect”.
